Reference: paper PMC5007854, “β-Nitrostyrenes as Potential Anti-leishmanial Agents” (Frontiers in Microbiology, 2016)
Values after ≈ are worked out from the molar mass of the structure shown. Like-named read-outs stand apart in the source and are kept apart here.

Assays:
[1] = test system: Staphylococcus aureus ATCC 29213; experiment: Broth microdilution antibacterial susceptibility (MIC/MBC); assay type: cell-based; conditions: Staphylococcus aureus; for MIC: ATCC29213, 24 h, broth microdilution, 35°C, 24 h, read-out: MIC, Sa ATCC 29213
Description: (§1) One reference each of the following species was used for their in vitro susceptibility to β-nitrostyrene in this study: Staphylococcus aureus ATCC 29213, Staphylococcus epidermidis ATCC 14990, Escherichia coli ATCC 25922, Pseudomonas aeruginosa ATCC 27853, Candida albicans ATCC 90028, Candida glabrata ATCC 90030, Aspergillus fumigatus ATCC 16424 and Aspergillus niger ATCC 16404. These strains were procured from the American Type Culture Collection (ATCC, Manassas, VA, USA).
(§2) The antibacterial and antifungal activities of the β-nitrostyrenes were performed by broth microdilution methods as per the guidelines of Clinical and Laboratory Standard Institute (Wayne, [1998], [2008a],[b],[c]) by using Mueller-Hinton broth (MHB; Becton-Dickinson, Cockeysville, MD, USA) supplemented with calcium (25 mg/L) and magnesium (12.5 mg/L) for bacterial strains while as RPMI 1640 medium with L-glutamine and without sodium bicarbonate, buffered to pH 7.0 with 0.165 M 3-(N-morpholino) propanesulfonic acid (MOPS; both from Sigma) was used for fungal strains. Stock solutions were prepared in 100% dimethyl sulfoxide (DMSO; Sigma; distilled water was used for ciprofloxacin), with a final DMSO concentration of 1% (vol. per vol.) and two-fold serial dilutions were prepared in media in amounts of 100 μL per well in 96-well U-bottom microtiter plates (Tarsons, Kolkata, India) to yield twice the final concentration required for testing, which ranged from 64 to 0.12 μg/mL for β-nitrostyrenes and 16 to 0.03 μg/mL for ciprofloxacin as well as amphotericin B. Stock inoculum suspensions of the bacteria, Candida species and Aspergillus species were prepared in sterile normal saline (0.85%) containing 0.05% polysorbate 20 (NST) from overnight (3 to 5-day old for Aspergillus species) strains grown on Trypticase soy agar (TSA; Becton-Dickinson) and potato dextrose agar (Difco Laboratories, Detroit, MI, USA) respectively at 35°C. Inocula were verified for each assay by plating onto agar plates for colony enumeration. These suspensions were further diluted in the respective test medium and a 100 μl volume of this diluted inoculum was added to each well of the plate, resulting in a final inoculum concentration of approximately 5 × 10^5 CFU/mL for bacter1ia, (Wayne, [2008a]) approximately 2.5 × 10^4 CFU/ml for Candida species (Pfaller et al., [2004]) while as 0.4 × 10^4 to 5 × 10^4 CFU/mL for Aspergillus species (Wayne, [2008c]). Untreated growth control, vehicle control (DMSO) and sterility control wells were included for each isolate tested. Ciprofloxacin and amphotericin B served as the standard drug controls for bacterial and fungal strains, respectively. The microtiter plates were incubated at 35°C for 24 h for bacterial strains and 48 h for fungal strains. The plates were read visually and the minimum inhibitory concentration (MIC) was defined as the lowest concentration of test sample that prevented visible growth with respect to the growth control.
(§3) The minimum bactericidal concentration (MBC) and minimum fungicidal concentration (MFC) were determined by plating 100 μl volumes on agar plates from the wells showing no visible growth (clear MIC well). The plates were incubated as described above in MIC measurements. […] All experiments were conducted twice in duplicates on separate occasions with freshly prepared inoculums and stock solutions.

[2] = test system: Pseudomonas aeruginosa ATCC 27853; experiment: as above; assay type: cell-based; conditions: for MIC / MBC: Pseudomonas aeruginosa; for MIC: ATCC27853, 24 h
Description: as §1, §2, §3

[3] = test system: Escherichia coli ATCC 25922; experiment: as above; assay type: cell-based; conditions: for MIC / MBC: Escherichia coli; for MIC: ATCC25922, 24 h
Description: as §1, §2, §3

[4] = test system: Staphylococcus epidermidis ATCC 14990; experiment: as above; assay type: cell-based; conditions: for MIC / MBC: Staphylococcus epidermidis; for MIC: ATCC14990, 24 h
Description: as §1, §2, §3

[5] = test system: Aspergillus fumigatus ATCC 16424; experiment: Broth microdilution antifungal susceptibility (MIC/MFC); assay type: cell-based; conditions: for MIC / MFC: Aspergillus fumigatus; for MIC: ATCC16424, 48 h
Description: as §1, §2, §3

[6] = test system: Candida glabrata ATCC 90030; experiment: as above; assay type: cell-based; conditions: Nakaseomyces glabratus; for MIC: ATCC90030, 48 h, broth microdilution, 35°C, 48 h, read-out: MIC, Cg ATCC 90030
Description: as §1, §2, §3

[7] = test system: Aspergillus niger ATCC 16404; experiment: as above; assay type: cell-based; conditions: for MIC / MFC: Aspergillus niger; for MIC: ATCC16404, 48 h
Description: as §1, §2, §3

[8] = test system: Candida albicans ATCC 90028; experiment: as above; assay type: cell-based; conditions: for MIC / MFC: Candida albicans; for MIC: ATCC90028, 48 h
Description: as §1, §2, §3

[9] = test system: L. donovani promastigotes; experiment: Anti-leishmanial screening at 100 μM, parasite viability by microscopy; assay type: cell-based, Leishmania donovani; conditions: for Anti-leishmanial activity, in words (SAR discussion): L. donovani promastigotes
Description: L. donovani parasites (MHOM/IN/83/AG83) were maintained in vivo in BALB/c mice. Promastigotes were routinely cultured at 22°C in medium M199 supplemented with 10% heat inactivated fetal bovine serum (FBS, HiMedia Laboratories, Mumbai, India), penicillin 100 (IU/ml), streptomycin (100 μg/ml). Log phase promastigotes were sub-cultured every 72–96 h, the inoculum being 2 × 10^6 cells/ml (Afrin et al., [2002]).
Nitrostyrine series were screened for their antileishmanial activity against L. donovani promastigotes in vitro. Promastigotes of L. donovani (2 × 10^6 cells/mL) in M199 medium were incubated at 22°C for 72 h with each compound at a concentration of 100 μM. Amphotericin B (AmB) served as reference drug, 0.2% DMSO was used as solvent control. Parasites with media alone were taken as control. Parasite viability was determined microscopically after 72 h (Islamuddin et al., [2014b]).

[10] = ATCC29213, ≥99.9% reduction of original inoculum, read-out: MBC, Sa ATCC 29213
[11] = broth microdilution, 35°C, 24 h, read-out: MIC, Pa ATCC 27853
[12] = ATCC27853, ≥99.9% reduction of original inoculum, read-out: MBC, Pa ATCC 27853
[13] = broth microdilution, 35°C, 24 h, read-out: MIC, Ec ATCC 25922
[14] = ATCC25922, ≥99.9% reduction of original inoculum, read-out: MBC, Ec ATCC 25922
[15] = broth microdilution, 35°C, 24 h, read-out: MIC, Se ATCC 14990
[16] = ATCC14990, ≥99.9% reduction of original inoculum, read-out: MBC, Se ATCC 14990
[17] = broth microdilution, 35°C, 48 h, read-out: MIC, Af ATCC 16424
[18] = ATCC16424, ≥99.9% reduction of original inoculum, read-out: MFC, Af ATCC 16424
[19] = ATCC90030, ≥99.9% reduction of original inoculum, read-out: MFC, Cg ATCC 90030
[20] = broth microdilution, 35°C, 48 h, read-out: MIC, An ATCC 16404
[21] = ATCC16404, ≥99.9% reduction of original inoculum, read-out: MFC, An ATCC 16404
[22] = broth microdilution, 35°C, 48 h, read-out: MIC, Ca ATCC 90028
[23] = ATCC90028, ≥99.9% reduction of original inoculum, read-out: MFC, Ca ATCC 90028
[24] = broth microdilution, 35°C, 24 h
[25] = broth microdilution, 35°C, 48 h

`CC/C(=C\c1c[nH]c2ccccc12)[N+](=O)[O-]` [Compound 30, 3-((E)-2-nitrobut-1-enyl)-1H-indole] gave a melting point of 64 to 66 °C, an MIC [1] of 16 µg/mL (≈ 74 µM) and an MBC [1, 10] of 16 µg/mL (≈ 74 µM). For the same compound, the MIC [2, 11] was > 64 µg/mL, the MBC [2, 12] was > 64 µg/mL and the MIC [3, 13] was 64 µg/mL (≈ 296 µM). For the same compound, the MBC [3, 14] was > 64 µg/mL, the MIC [4, 15] was 8 µg/mL (≈ 37 µM) and the MBC [4, 16] was 8 µg/mL (≈ 37 µM). It also gave an MIC [5, 17] of 64 µg/mL (≈ 296 µM), an MFC [5, 18] of 64 µg/mL (≈ 296 µM) and an MIC [6] of 32 µg/mL (≈ 148 µM). For the same compound, the MFC [6, 19] was 64 µg/mL (≈ 296 µM), the MIC [7, 20] was 32 µg/mL (≈ 148 µM) and the MFC [7, 21] was 32 µg/mL (≈ 148 µM). The MIC [8, 22] was > 64 µg/mL and the MFC [8, 23] was > 64 µg/mL.
For `COc1ccc(/C=C/[N+](=O)[O-])cc1OC` [Compound 22, 1,2-dimethoxy-4-((E)-2-nitrovinyl) benzene], the MIC [1] was > 64 µg/mL, the MBC [1, 10] was > 64 µg/mL and the MIC [2, 11] was > 64 µg/mL. For the same compound, the MBC [2, 12] was > 64 µg/mL, the MIC [3, 13] was > 64 µg/mL and the MBC [3, 14] was > 64 µg/mL. It also gave an MIC [4, 15] of 64 µg/mL (≈ 306 µM), an MBC [4, 16] of 64 µg/mL (≈ 306 µM) and an MIC [5, 17] of 32 µg/mL (≈ 153 µM). It also gave an MFC [5, 18] of 64 µg/mL (≈ 306 µM), an MIC [6] of 16 µg/mL (≈ 76.5 µM) and an MFC [6, 19] of 16 µg/mL (≈ 76.5 µM). For the same compound, the MIC [7, 20] was 32 µg/mL (≈ 153 µM), the MFC [7, 21] was 32 µg/mL (≈ 153 µM) and the MIC [8, 22] was 64 µg/mL (≈ 306 µM). For the same compound, the MFC [8, 23] was 64 µg/mL (≈ 306 µM) and the “Anti-leishmanial activity, in words (SAR discussion)” value [9] was “inactive”.
With `O=[N+]([O-])/C=C/c1ccc([N+](=O)[O-])cc1` [Compound 7, 1-nitro-4-((E)-2-nitrovinyl) benzene] the MBC ([1]; ATCC29213, read-out: MBC, Sa ATCC 29213) was 8 µg/mL (≈ 41.2 µM), the MIC ([2]; read-out: MIC, Pa ATCC 27853, broth microdilution, 35°C, 24 h) was 16 to 32 µg/mL (≈ 82.4 to 165 µM) and the MBC ([2]; ATCC27853, read-out: MBC, Pa ATCC 27853) was 32 µg/mL (≈ 165 µM). For the same compound, the “MIC, Pa ATCC 27853” value [2, 24] was 16 µg/mL (≈ 82.4 µM), the MIC ([3]; read-out: MIC, Ec ATCC 25922, broth microdilution, 35°C, 24 h) was 16 to 32 µg/mL (≈ 82.4 to 165 µM) and the MBC ([3]; ATCC25922, read-out: MBC, Ec ATCC 25922) was 32 µg/mL (≈ 165 µM). The “MIC, Ec ATCC 25922” value [3, 24] was 16 µg/mL (≈ 82.4 µM), the MIC ([4]; read-out: MIC, Se ATCC 14990, broth microdilution, 35°C, 24 h) was 2 to 16 µg/mL (≈ 10.3 to 82.4 µM) and the MBC ([4]; ATCC14990, read-out: MBC, Se ATCC 14990) was 4 µg/mL (≈ 20.6 µM). For the same compound, the “MIC, Se ATCC 14990” value [4, 24] was 4 µg/mL (≈ 20.6 µM), the MIC ([5]; read-out: MIC, Af ATCC 16424, broth microdilution, 35°C, 48 h) was 4 to 8 µg/mL (≈ 20.6 to 41.2 µM) and the MFC ([5]; ATCC16424, read-out: MFC, Af ATCC 16424) was 4 µg/mL (≈ 20.6 µM). The “MIC, Af ATCC 16424” value [5, 25] was 4 µg/mL (≈ 20.6 µM), the MFC ([6]; ATCC90030, read-out: MFC, Cg ATCC 90030) was 4 µg/mL (≈ 20.6 µM) and the MIC ([7]; read-out: MIC, An ATCC 16404, broth microdilution, 35°C, 48 h) was 2 to 4 µg/mL (≈ 10.3 to 20.6 µM). For the same compound, the MFC ([7]; ATCC16404, read-out: MFC, An ATCC 16404) was 2 µg/mL (≈ 10.3 µM), the “MIC, An ATCC 16404” value [7, 25] was 2 µg/mL (≈ 10.3 µM) and the MIC ([8]; read-out: MIC, Ca ATCC 90028, broth microdilution, 35°C, 48 h) was 4 to 32 µg/mL (≈ 20.6 to 165 µM). For the same compound, the MFC ([8]; ATCC90028, read-out: MFC, Ca ATCC 90028) was 4 µg/mL (≈ 20.6 µM), the “MIC, Ca ATCC 90028” value [8, 25] was 4 µg/mL (≈ 20.6 µM) and the “Parasite viability after treatment” value ([9]; 100 μM, 72 h, phase contrast microscope) was “All the parasites were found to be dead”.
With `CC/C(=C\c1ccc(OC)cc1)[N+](=O)[O-]` [Compound 15, 1-methoxy-4-((E)-2-nitrobut-1-enyl) benzene] the MIC [1] was 16 µg/mL (≈ 77.2 µM), the MBC [1, 10] was 32 µg/mL (≈ 154 µM) and the MIC [2, 11] was > 64 µg/mL. The MBC [2, 12] was > 64 µg/mL, the MIC [3, 13] was > 64 µg/mL and the MBC [3, 14] was > 64 µg/mL. The MIC [4, 15] was 16 µg/mL (≈ 77.2 µM), the MBC [4, 16] was 16 µg/mL (≈ 77.2 µM) and the MIC [5, 17] was 8 µg/mL (≈ 38.6 µM). The MFC [5, 18] was 16 µg/mL (≈ 77.2 µM), the MIC [6] was 16 µg/mL (≈ 77.2 µM) and the MFC [6, 19] was 16 µg/mL (≈ 77.2 µM). It also gave an MIC [7, 20] of 8 µg/mL (≈ 38.6 µM), an MFC [7, 21] of 8 µg/mL (≈ 38.6 µM) and an MIC [8, 22] of 32 µg/mL (≈ 154 µM). For the same compound, the MFC [8, 23] was 32 µg/mL (≈ 154 µM) and the “Anti-leishmanial activity, in words (SAR discussion)” value [9] was “reduced the activity”.
